According to ChEMBL document CHEMBL1201862, “PubChem BioAssay data set” (2004):
Calls of active or inactive are those of the source.

Legend:
[1] = target: 1-phosphatidylinositol 4,5-bisphosphate phosphodiesterase gamma-1 (Homo sapiens, UniProt P19174); assay: Counterscreen for inhibitors of phospholipase C isozymes (PLC-B3): Fluorescence-based biochemical high throughput dose response assay to identify inhibitors of phospholipase C isozymes (PLC-gamma1).
[2] = target: 1-phosphatidylinositol 4,5-bisphosphate phosphodiesterase beta-3 (Homo sapiens, UniProt Q01970); assay: Fluorescence-based biochemical high throughput dose response assay to identify inhibitors of phospholipase C isozymes (PLC-B3).
Chain of 1-phosphatidylinositol 4,5-bisphosphate phosphodiesterase beta-3 (Q01970 whole entry, the tested form may be a part): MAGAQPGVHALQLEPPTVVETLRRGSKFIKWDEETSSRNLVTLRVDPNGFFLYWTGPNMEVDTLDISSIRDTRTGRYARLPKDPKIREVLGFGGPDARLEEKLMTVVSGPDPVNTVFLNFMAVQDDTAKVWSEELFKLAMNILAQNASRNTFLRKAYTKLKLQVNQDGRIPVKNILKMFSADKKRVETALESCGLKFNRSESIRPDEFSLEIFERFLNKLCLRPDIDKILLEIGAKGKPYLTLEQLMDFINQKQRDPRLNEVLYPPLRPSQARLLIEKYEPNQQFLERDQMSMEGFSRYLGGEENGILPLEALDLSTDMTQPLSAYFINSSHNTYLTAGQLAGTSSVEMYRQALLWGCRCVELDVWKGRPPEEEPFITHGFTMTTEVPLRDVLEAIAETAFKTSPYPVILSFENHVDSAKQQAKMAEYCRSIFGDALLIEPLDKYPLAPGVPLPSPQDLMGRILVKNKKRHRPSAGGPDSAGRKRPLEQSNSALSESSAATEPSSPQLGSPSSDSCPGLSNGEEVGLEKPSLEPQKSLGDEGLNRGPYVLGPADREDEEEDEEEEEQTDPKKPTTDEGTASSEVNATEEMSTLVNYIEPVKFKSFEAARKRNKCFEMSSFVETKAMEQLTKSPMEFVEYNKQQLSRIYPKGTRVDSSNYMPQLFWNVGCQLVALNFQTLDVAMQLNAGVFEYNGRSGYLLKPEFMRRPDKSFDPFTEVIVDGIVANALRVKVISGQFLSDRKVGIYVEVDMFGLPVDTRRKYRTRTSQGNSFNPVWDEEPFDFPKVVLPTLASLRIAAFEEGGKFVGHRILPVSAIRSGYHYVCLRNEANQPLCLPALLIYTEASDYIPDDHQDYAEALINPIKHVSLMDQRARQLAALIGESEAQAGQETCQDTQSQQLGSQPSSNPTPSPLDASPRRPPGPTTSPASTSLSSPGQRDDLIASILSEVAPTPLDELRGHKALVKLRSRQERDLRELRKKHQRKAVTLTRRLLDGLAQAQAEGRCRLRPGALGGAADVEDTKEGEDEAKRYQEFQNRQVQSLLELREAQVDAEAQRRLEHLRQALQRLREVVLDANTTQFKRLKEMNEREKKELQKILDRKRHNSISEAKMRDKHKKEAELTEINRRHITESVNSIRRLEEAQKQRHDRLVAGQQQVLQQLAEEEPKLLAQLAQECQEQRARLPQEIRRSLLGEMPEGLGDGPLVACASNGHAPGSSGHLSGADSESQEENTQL

[3] = target: T1, Carboxy-terminal domain RNA polymerase II polypeptide A small phosphatase 1 (Homo sapiens, UniProt Q9GZU7); assay: inhibitors of CTDSP1, concentration-response testing, biochemical assay, absorbance-based, actives from ultra-high-throughput screening (AID 540297); type: functional
T1 sequence (Q9GZU7 whole entry): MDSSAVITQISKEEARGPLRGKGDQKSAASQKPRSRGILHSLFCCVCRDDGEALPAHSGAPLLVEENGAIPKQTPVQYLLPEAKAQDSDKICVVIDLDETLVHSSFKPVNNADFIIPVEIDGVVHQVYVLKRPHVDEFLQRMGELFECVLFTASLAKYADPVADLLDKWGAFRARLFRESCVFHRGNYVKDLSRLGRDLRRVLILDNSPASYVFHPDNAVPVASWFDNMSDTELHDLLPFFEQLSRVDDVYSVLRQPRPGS

[4] = target: DNA (cytosine-5)-methyltransferase 1 (Homo sapiens, UniProt P26358); assay: DNMT1 methyltransferase inhibitors, confirmation, biochemical, fluorescent molecular beacon (AID 602386); type: functional
[5] = target: 26S proteasome non-ATPase regulatory subunit 14 (Homo sapiens, UniProt O00487); assay: inhibition of proteasome subunit RPN11 – biochemical, fluorescence polarization, uHTS hits, confirmation (AID 602368); type: functional
Chain of 26S proteasome non-ATPase regulatory subunit 14 (O00487 whole entry): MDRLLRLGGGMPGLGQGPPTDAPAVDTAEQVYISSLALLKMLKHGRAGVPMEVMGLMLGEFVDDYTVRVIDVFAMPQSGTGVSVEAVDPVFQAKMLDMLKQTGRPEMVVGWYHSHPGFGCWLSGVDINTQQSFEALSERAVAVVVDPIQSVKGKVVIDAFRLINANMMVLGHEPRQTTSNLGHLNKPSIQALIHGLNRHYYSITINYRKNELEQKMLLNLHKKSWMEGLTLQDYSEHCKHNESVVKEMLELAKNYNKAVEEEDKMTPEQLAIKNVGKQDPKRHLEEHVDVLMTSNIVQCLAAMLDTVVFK

[6] = target: 72 kDa type IV collagenase (Homo sapiens, UniProt P08253); assay: Dose Response validation of uHTS RPN11 inhibitor hits using a MMP-2 Fluorescence assay.; type: functional
Chain of 72 kDa type IV collagenase (P08253 whole entry): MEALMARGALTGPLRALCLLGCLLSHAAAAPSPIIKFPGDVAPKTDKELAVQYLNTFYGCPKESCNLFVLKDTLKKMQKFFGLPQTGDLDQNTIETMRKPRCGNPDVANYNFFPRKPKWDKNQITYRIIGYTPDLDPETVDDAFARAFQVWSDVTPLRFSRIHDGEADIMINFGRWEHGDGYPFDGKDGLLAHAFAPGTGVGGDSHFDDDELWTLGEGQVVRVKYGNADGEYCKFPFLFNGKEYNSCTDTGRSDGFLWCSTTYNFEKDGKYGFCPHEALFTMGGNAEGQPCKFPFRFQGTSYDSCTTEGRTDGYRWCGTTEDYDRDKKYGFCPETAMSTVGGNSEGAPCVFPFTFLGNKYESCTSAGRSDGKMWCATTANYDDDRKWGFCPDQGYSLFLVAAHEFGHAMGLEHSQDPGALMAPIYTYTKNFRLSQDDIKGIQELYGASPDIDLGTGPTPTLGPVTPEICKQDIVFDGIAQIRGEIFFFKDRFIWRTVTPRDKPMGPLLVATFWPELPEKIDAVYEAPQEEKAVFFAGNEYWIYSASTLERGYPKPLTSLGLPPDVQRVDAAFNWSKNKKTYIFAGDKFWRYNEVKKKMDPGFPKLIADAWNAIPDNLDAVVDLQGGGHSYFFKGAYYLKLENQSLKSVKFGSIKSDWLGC

Prothrombin = Prothrombin (Bos taurus, UniProt P00735); assay: thrombin inhibition, dose response, biochemical, fluorescence polarization, uHTS hits (AID 602369); type: functional
[7] = target: T2, Small ubiquitin-related modifier 1 (Homo sapiens, UniProt P63165); assay: inhibitors of SUMO1 peptide binding, dose response, biochemical, fluorescence polarization, uHTS hits (AID 624382); type: functional; conditions: read-out: IC50_Mean
T2 sequence (P63165 whole entry): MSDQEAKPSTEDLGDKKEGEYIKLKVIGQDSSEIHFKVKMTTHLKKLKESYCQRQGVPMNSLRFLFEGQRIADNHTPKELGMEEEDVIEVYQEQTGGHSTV

[8] = target: T2, Small ubiquitin-related modifier 1; assay: inhibitors of SUMO1 partner interactions, dose response, biochemical, FRET (AID 624383); type: functional; conditions: read-out: IC50_Mean
Caspase-6 = target: T3, Caspase-6 (Homo sapiens, UniProt P55212); assay: human caspase-6 inhibitors, dose response, biochemical, VEID-R110 fluorescence, cherry-pick (AID 720632)
T3 sequence (P55212 whole entry): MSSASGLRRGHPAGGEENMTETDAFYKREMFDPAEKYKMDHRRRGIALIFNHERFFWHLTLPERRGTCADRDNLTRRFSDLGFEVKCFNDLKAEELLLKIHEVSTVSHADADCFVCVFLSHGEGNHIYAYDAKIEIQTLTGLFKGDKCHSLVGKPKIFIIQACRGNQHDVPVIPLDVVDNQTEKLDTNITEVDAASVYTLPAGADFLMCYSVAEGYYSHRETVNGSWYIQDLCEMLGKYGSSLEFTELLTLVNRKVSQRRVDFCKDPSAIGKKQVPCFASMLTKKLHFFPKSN

Caspase-7 = Caspase-7 (Homo sapiens, UniProt P55210); assay: human caspase-7 inhibitors, dose response, selectivity assay for caspase-6 inhibitor project, biochemical, DEVD-R110 fluorescence, cherry-pick (AID 743295)
Chain of Caspase-7 (P55210 24-198 limits assumed): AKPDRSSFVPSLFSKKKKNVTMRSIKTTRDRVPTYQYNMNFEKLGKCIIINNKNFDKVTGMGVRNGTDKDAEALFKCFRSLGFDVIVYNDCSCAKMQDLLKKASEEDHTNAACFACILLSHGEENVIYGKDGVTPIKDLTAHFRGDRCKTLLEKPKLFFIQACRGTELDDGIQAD
Chain of Caspase-7 (P55210 207-303 limits assumed): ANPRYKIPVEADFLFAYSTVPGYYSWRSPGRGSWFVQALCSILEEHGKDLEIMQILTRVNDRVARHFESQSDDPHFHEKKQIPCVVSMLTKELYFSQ

Caspase-8 = Caspase-8 (Homo sapiens, UniProt Q14790); assay: caspase-8 inhibition counter-screen, dose response, selectivity assay for caspase-6 inhibitor project, biochemical, Z-IETD-R110 fluorescence, cherry-picked samples (AID 743294)
Chain of Caspase-8 (Q14790 217-374 limits assumed): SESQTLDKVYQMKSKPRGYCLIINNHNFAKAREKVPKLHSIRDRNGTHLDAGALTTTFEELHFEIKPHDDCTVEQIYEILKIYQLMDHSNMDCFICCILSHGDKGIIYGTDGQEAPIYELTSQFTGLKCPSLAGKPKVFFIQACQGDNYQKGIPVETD
Chain of Caspase-8 (Q14790 385-479 limits assumed): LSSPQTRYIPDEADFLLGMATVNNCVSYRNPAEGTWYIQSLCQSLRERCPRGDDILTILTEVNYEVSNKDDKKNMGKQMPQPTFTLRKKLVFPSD

[9] = THP-1 cell cytotoxicity, dose response, cytotoxicity control for Vif-APOBEC3G degradation inhibitor project, THP-1 cells (AID 1117359); type: functional; conditions: Human immunodeficiency virus 1, THP-1
[10] = target: T4, Methionyl-tRNA synthetase, putative (Trypanosoma brucei brucei, UniProt Q38C91); type: functional, Trypanosoma brucei brucei strain 927/4 GUTat10.1
T4 sequence (Q38C91 whole entry): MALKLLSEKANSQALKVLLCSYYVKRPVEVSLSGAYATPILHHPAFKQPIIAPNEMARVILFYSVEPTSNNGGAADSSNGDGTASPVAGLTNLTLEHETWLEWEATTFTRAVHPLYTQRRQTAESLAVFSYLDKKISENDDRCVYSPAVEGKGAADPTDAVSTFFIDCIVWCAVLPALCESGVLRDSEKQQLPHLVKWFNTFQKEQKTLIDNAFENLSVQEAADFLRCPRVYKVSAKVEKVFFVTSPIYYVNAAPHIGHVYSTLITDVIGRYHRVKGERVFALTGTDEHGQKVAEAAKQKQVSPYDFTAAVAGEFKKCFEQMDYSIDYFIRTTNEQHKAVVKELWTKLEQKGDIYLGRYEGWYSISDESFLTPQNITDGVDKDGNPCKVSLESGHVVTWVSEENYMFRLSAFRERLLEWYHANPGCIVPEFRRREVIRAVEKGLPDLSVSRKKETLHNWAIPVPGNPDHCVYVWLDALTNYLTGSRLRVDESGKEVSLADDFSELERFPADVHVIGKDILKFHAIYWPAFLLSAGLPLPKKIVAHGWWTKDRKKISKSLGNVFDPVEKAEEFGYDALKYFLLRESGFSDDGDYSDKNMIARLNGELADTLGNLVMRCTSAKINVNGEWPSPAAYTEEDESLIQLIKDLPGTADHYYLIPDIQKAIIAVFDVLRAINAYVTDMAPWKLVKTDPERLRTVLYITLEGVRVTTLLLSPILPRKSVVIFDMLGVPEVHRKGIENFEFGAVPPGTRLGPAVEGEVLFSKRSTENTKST

[11] = Counterscreen for inhibitors of Trypanosoma brucei methionyl tRNA synthetase (MetRS): Luminescence-based cell-based high throughput dose response assay to identify compounds that are cytotoxic to Jurkat human T lymphocyte cells.; type: functional
[12] = target: T4, Methionyl-tRNA synthetase, putative; type: functional, Trypanosoma brucei brucei strain 927/4 GUTat10.1; remark: listed apart in the source
[13] = Late stage counterscreen for inhibitors of Trypanosoma brucei methionyl tRNA synthetase (MetRS): Luminescence-based cell-based high throughput dose response assay to identify compounds that are cytotoxic to Jurkat human T lymphocyte cells.; type: functional
[14] = HIV Env cell-cell fusion inhibitors, dose response, HIV entry, plate reader, dry powder (AID 687023); type: functional, cell-based
[15] = luciferase signal loss, tTA control fusion, HeLa F-luc tTA cells, dry powder, counter-screen for HIV Env fusion inhibitor project, dose response (AID 687021); type: functional, cell-based
[16] = CEM21 cell cytotoxicity, dose response, cytotoxicity control, plate reader, dry powder (AID 687026); type: functional, cell-based
[17] = target: Glutathione-S-transferase (Schistosoma japonicum, UniProt Q26513); assay: biotin-GST/anti-GST TR-FRET signal inhibitors, dose response, artefact control for Vif-APOBEC3G degradation inhibitor project, biochemical (AID 1117362); type: functional
Chain of Glutathione-S-transferase (Q26513 whole entry): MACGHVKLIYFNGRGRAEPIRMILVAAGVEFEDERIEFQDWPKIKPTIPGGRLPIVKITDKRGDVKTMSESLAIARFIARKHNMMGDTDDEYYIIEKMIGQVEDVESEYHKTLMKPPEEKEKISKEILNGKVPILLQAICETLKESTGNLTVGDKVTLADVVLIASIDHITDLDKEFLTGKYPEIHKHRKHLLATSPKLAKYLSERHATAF

[18] = miR-122 activators in hepatoma reporter cells, dose response, cell-based, Huh7 psiCHECK-miR122, Renilla luciferase, cherry-picked (AID 651956); type: functional;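 note: huh7 hepatoma cells stably carrying a psiCHECK-2 miR-122 sensor plasmid; renilla luciferase signal reporting endogenous miR-122 activity after 48 h compound exposure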
[19] = inhibitors of PGC1a acetylation in cells, dose response, cell-based, cherry-picked samples (AID 720514); type: functional;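 note: potency may reflect raised or lowered acetylation signal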
[20] = HEK293T cytotoxicity, dose response, cytotoxicity control for miR-122 modulator project, cell-based, inhibitor set, cherry-pick, set 2 (AID 720697); type: functional
[21] = HEK293T cytotoxicity, dose response, cytotoxicity control for miR-122 modulator project, cell-based, activator set, cherry-pick (AID 720690); type: functional;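 note: HEK293T human cells scored for general mammalian cytotoxicity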
[22] = BHK-21 cell cytotoxicity, cytotoxicity control for flavivirus guanylyltransferase probe project, secondary screen (AID 624078); type: functional
[23] = inhibitors of non-replicating M. tuberculosis, dose response, luciferase, dry powder (AID 651619); type: functional; conditions: Mycobacterium tuberculosis
[24] = inhibitors of non-replicating M. tuberculosis, dose response, luciferase, dry powder (AID 651620); type: functional; conditions: Mycobacterium tuberculosis
[25] = Late-stage results from the probe development effort to identify antagonists of arginine vasopressin receptor 1a (AVPR1a): fluorescence-based cell-based dose response AVPR1a inhibition assay.; type: functional
Vasopressin V1b receptor = Vasopressin V1b receptor (Homo sapiens, UniProt P47901); assay: Late-stage results from the probe development effort to identify antagonists of arginine vasopressin receptor 1a (AVPR1a): fluorescence-based cell-based dose response AVPR1b inhibition counterscreen assay.; type: functional
Chain of Vasopressin V1b receptor (P47901 whole entry): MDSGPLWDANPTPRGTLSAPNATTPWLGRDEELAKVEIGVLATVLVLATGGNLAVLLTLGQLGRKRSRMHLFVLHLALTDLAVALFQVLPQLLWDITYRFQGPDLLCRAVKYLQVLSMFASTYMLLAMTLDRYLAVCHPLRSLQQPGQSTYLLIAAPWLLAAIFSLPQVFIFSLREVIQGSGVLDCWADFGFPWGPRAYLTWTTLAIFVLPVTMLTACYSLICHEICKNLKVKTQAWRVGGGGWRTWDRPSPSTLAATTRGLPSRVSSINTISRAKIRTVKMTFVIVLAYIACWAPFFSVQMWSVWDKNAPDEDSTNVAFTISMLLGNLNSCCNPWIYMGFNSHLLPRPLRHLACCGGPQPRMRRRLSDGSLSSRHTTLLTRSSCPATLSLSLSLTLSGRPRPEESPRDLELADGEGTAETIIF

Vasopressin V2 receptor = Vasopressin V2 receptor (Homo sapiens, UniProt P30518); assay: Late-stage results from the probe development effort to identify antagonists of arginine vasopressin receptor 1a (AVPR1a): fluorescence-based cell-based dose response AVPR2 inhibition counterscreen assay.; type: functional
[26] = Late-stage results from the probe development effort to identify antagonists of arginine vasopressin receptor 1a (AVPR1a): fluorescence-based cell-based dose response OXTR inhibition counterscreen assay.; type: functional
[27] = A375 melanoma cell viability loss, dose response, counter-screen for MITF inhibitor project, CellTiter-Glo luminescence, dry powder, set 4 (AID 624364); type: functional, cell-based; conditions: A-375;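 note: A375 melanoma cells are MITF independent so this is a counter screen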
[28] = A375 melanoma cell cytotoxicity, dose response, counter-screen for MITF inhibitor project, CellTiter-Glo luminescence, dry powder, set 2 (AID 624489); type: functional, cell-based; conditions: A-375;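 note: actives are compounds lowering A375 viability meaning general cytotoxicity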

Chain of 1-phosphatidylinositol 4,5-bisphosphate phosphodiesterase gamma-1 (P19174 whole entry): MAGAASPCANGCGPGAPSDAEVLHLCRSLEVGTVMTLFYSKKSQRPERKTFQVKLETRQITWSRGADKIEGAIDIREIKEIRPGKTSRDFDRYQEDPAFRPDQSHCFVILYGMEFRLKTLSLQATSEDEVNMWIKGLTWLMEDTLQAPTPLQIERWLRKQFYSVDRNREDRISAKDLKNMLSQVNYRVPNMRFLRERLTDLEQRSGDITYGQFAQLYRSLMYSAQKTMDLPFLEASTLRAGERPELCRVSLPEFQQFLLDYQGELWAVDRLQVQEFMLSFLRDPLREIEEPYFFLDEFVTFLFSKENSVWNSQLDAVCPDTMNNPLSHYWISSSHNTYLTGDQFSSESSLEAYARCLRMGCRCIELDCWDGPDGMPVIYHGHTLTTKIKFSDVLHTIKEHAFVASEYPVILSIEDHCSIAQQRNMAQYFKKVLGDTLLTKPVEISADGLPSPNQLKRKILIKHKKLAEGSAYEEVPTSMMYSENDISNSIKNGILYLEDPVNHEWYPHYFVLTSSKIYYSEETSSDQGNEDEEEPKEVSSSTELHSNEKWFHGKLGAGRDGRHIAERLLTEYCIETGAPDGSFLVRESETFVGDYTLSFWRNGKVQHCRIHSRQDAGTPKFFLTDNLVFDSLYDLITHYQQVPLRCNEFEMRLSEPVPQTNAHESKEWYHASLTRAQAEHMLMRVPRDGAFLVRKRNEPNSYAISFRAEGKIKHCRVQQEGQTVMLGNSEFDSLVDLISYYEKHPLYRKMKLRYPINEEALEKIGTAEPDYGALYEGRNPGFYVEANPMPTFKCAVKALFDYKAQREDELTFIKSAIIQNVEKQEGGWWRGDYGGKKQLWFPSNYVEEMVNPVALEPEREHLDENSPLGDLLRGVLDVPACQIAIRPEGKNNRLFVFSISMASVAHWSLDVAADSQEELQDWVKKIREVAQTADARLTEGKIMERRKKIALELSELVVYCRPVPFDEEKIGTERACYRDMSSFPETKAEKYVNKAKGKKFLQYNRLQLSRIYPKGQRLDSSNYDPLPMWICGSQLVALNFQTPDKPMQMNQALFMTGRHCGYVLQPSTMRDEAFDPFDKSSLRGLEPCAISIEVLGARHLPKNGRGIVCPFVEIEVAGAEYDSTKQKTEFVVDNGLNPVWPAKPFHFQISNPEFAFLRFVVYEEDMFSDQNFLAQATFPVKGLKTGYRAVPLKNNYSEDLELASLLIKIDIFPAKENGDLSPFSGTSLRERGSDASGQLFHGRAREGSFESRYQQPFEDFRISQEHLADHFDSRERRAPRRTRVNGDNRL

Compound: COc1ccc(NC(=O)c2sc3cc(C(F)(F)F)cnc3c2-c2cccs2)cc1
- IC50 [1]: > 122 µM (inactive)
- IC50 [2]: > 122 µM (inactive)

Compound: Cc1ccc(NC(=O)CN(C)C(=O)c2cccc(-n3cccc3)c2)cc1
- IC50 [3]: 5.68 µM (active)
- IC50 [4]: 9.26 µM (active)
- IC50 [5]: 11 µM (active)
- IC50 [6]: 18.4 µM (active)
- IC50 (Prothrombin): 86.9 µM (active)
- IC50 [7]: > 66.6 µM (inactive)
- IC50 [8]: 5.95 µM (active)
- AC50 (Caspase-6): 1.5 µM (active)
- AC50 (Caspase-7): > 70 µM (inactive)
- AC50 (Caspase-8): > 70 µM (inactive)
- CC50 [9]: > 40 µM (active)

Compound: O=C1CC(SCc2nc3ccccc3[nH]2)C(=O)N1c1cccc(Cl)c1 (centres undefined)
- IC50 [10]: 3.81 µM (active)
- IC50 [11]: 65 µM (inactive)
- IC50 [12]: 2.6 µM (active)
- IC50 [13]: > 83.3 µM (inactive)

Compound: COC(=O)COc1ccc(S(=O)(=O)NCc2ccncc2)cc1
- AC50 [14]: 20.7 µM (active)
- AC50 [15]: > 70 µM (inactive)
- AC50 [16]: > 70 µM (inactive)

Compound: CCOC(=O)C1CCCC12Nc1cccc3cccc(c13)N2 (centres undefined)
- IC50 [17]: > 100 µM (active)

Compound: COc1ccc(C#Cc2ccc([C@@H]3[C@H](CO)N4CCCCN(C(=O)Nc5ccccc5)C[C@@H]34)cc2)cc1
- AC50 [18]: 7.42 µM (active)
- AC50 [19]: 9.62 µM (active)
- AC50 [20]: 0.405 µM (active)
- AC50 [21]: 7.77 µM (active)

Compound: O=[N+]([O-])c1cccc(S(=O)(=O)Nc2cc(Sc3nc4ccccc4s3)c(O)c3ccccc23)c1
- CC50 [22]: 11.5 µM (active)

Compound: c1ccc(-c2nnc(SCC3CC3)o2)cc1
- IC90 [23]: 2 µM (active)
- IC90 [24]: 2 µM (active)

Compound: COc1ccccc1N(CC1CC1)C(=O)N1CCN(c2ccccc2C)CC1
- IC50 [25]: 0.292 µM (active)
- IC50 (Vasopressin V1b receptor): 17.9 µM (inactive)
- IC50 (Vasopressin V2 receptor): 12.3 µM (inactive)
- IC50 [26]: 12.3 µM (inactive)

Compound: COc1ccc(C2=C(NC(=O)c3cccc(Cl)c3)C(=O)c3ccccc3C2=O)cc1
- AC50 [27]: 24.1 µM (active)
- AC50 [28]: 18.2 µM (active)
